From the CheMixHub viscosity set
Where “and” joins values, the source holds several entries; their conditions need not be identical. Equal values may be shown once. ± gives the uncertainty stated by the source.

Assay: xn = mol fraction of the nth substance listed

CCCCCCCCCCCCCC + CCCCCO
viscosity [mPa·s], 101.33 kPa
Settings	x1 = 0.0999	x1 = 0.2002	x1 = 0.3001	x1 = 0.3987	x1 = 0.5009	x1 = 0.6004	x1 = 0.6996	x1 = 0.8014	x1 = 0.9002
293.15 K	3.262 ± 0.33	2.941 ± 0.3	2.698 ± 0.27	2.52 ± 0.25	2.396 ± 0.24	2.31 ± 0.23	2.26 ± 0.23	2.234 ± 0.22	2.243 ± 0.23
303.15 K	2.499 ± 0.25	2.274 ± 0.23	2.103 ± 0.21	1.982 ± 0.2	1.896 ± 0.19	1.845 ± 0.19	1.82 ± 0.18	1.817 ± 0.18	1.829 ± 0.18
313.15 K	1.963 ± 0.2	1.797 ± 0.18	1.674 ± 0.17	1.588 ± 0.16	1.531 ± 0.15	1.5 ± 0.15	1.491 ± 0.15	1.501 ± 0.15	1.519 ± 0.15
323.15 K	1.556 ± 0.16	1.441 ± 0.14	1.353 ± 0.14	1.297 ± 0.13	1.259 ± 0.13	1.241 ± 0.12	1.246 ± 0.13	1.262 ± 0.13	1.285 ± 0.13

O=[N+]([O-])c1ccccc1 + CCCCCO
293.15 K, 101.33 kPa
Settings	viscosity [mPa·s]
x2 = 0.0258	1.964 ± 0.045
x2 = 0.0556	1.924 ± 0.045
x2 = 0.104	1.867 ± 0.043
x2 = 0.18	1.856 ± 0.043
x2 = 0.204	1.86 ± 0.043
x2 = 0.2635	1.899 ± 0.044
x2 = 0.2976	1.918 ± 0.044
x2 = 0.3319	1.938 ± 0.045
x2 = 0.3827	2.003 ± 0.046
x2 = 0.4677	2.104 ± 0.048
x2 = 0.6694	2.475 ± 0.056
x2 = 0.8217	2.982 ± 0.067

CC=Cc1ccc(O)c(OC)c1 + CCCCCOC(C)=O
298.15 K, 101 kPa
Settings	viscosity [mPa·s]
x1 = 0.062	0.92 ± 0.012
x1 = 0.119	1.06 ± 0.014

CCCCCCC + CCCCO
viscosity [mPa·s]
Settings	298.15 K	308.15 K
100 kPa, x2 = 0.1602	0.4667 ± 0.013	–
100 kPa, x2 = 0.3421	0.6085 ± 0.017	–
100 kPa, x2 = 0.5006	0.8545 ± 0.023	–
100 kPa, x2 = 0.6598	1.191 ± 0.032	–
100 kPa, x2 = 0.8398	1.747 ± 0.048	–
101.33 kPa, x2 = 0.077	0.421 ± 0.0045	0.3698 ± 0.0043
101.33 kPa, x2 = 0.1523	0.456 ± 0.0047	0.392 ± 0.0044
101.33 kPa, x2 = 0.2853	0.5468 ± 0.0053	0.4571 ± 0.0048
101.33 kPa, x2 = 0.4094	0.667 ± 0.006	0.5432 ± 0.0054
101.33 kPa, x2 = 0.5024	0.787 ± 0.0069	0.6232 ± 0.0059
101.33 kPa, x2 = 0.6136	0.9824 ± 0.0082	0.7769 ± 0.007
101.33 kPa, x2 = 0.7055	1.204 ± 0.0097	0.9444 ± 0.0083
101.33 kPa, x2 = 0.7866	1.453 ± 0.012	1.136 ± 0.0097
101.33 kPa, x2 = 0.8595	1.751 ± 0.014	1.363 ± 0.012
101.33 kPa, x2 = 0.8998	1.942 ± 0.015	1.515 ± 0.013
101.33 kPa, x2 = 0.9352	2.144 ± 0.017	1.666 ± 0.014
101.33 kPa, x2 = 0.9675	2.342 ± 0.018	1.821 ± 0.016

CCCCCO + CCCCO
viscosity [mPa·s], 101.33 kPa
Settings	x2 = 0.1315	x2 = 0.278	x2 = 0.4762	x2 = 0.5662	x2 = 0.8222	x2 = 0.9381
293.15 K	3.867 ± 0.11	3.7 ± 0.11	3.489 ± 0.1	3.392 ± 0.098	3.127 ± 0.09	3.013 ± 0.087
298.15 K	3.353 ± 0.097	3.232 ± 0.094	3.038 ± 0.088	2.959 ± 0.086	2.738 ± 0.08	2.642 ± 0.077

CN(C)C=O + CCCCO
Settings	viscosity [mPa·s]
298.15 K, 101 kPa, x1 = 0.5035	1.381 ± 0.34

ClC(Cl)=C(Cl)Cl + CCCCO
Settings	viscosity [mPa·s]
298.15 K, 101.3 kPa, x1 = 0.6759	1.045 ± 0.01

c1ccccc1 + CCCCO
Settings	viscosity
293.15 K, 101.33 kPa, x2 = 0.2	0.714 ± 0.014 mPa·s and 0.714 ± 0.019 mPa·s
293.15 K, 101.33 kPa, x2 = 0.4	0.898 ± 0.024 mPa·s
293.15 K, 101.33 kPa, x2 = 0.5	1.054 ± 0.021 mPa·s and 1.054 ± 0.029 mPa·s
293.15 K, 101.33 kPa, x2 = 0.6	1.279 ± 0.035 mPa·s
293.15 K, 101.33 kPa, x2 = 0.8	1.92 ± 0.053 mPa·s
298.15 K, 101 kPa, x1 = 0.082	2.158 ± 0.022 mPa·s
298.15 K, 101 kPa, x1 = 0.151	1.88 ± 0.019 mPa·s
298.15 K, 101 kPa, x1 = 0.254	1.511 ± 0.016 mPa·s
298.15 K, 101 kPa, x1 = 0.345	1.277 ± 0.013 mPa·s
298.15 K, 101 kPa, x1 = 0.52	0.919 ± 0.01 mPa·s
298.15 K, 101 kPa, x1 = 0.678	0.754 ± 0.008 mPa·s
298.15 K, 101 kPa, x1 = 0.841	0.63 ± 0.007 mPa·s
298.15 K, 101 kPa, x1 = 0.915	0.601 ± 0.006 mPa·s
298.15 K, 101 kPa, x2 = 0.05	0.604 ± 0.016 mPa·s
298.15 K, 101 kPa, x2 = 0.1	0.62 ± 0.016 mPa·s
298.15 K, 101 kPa, x2 = 0.16	0.64 ± 0.017 mPa·s
298.15 K, 101 kPa, x2 = 0.21	0.664 ± 0.018 mPa·s
298.15 K, 101 kPa, x2 = 0.41	0.842 ± 0.022 mPa·s
298.15 K, 101 kPa, x2 = 0.51	1.006 ± 0.026 mPa·s
298.15 K, 101 kPa, x2 = 0.61	1.178 ± 0.031 mPa·s
298.15 K, 101 kPa, x2 = 0.81	1.684 ± 0.044 mPa·s
298.15 K, 101.33 kPa, x2 = 0.2	0.655 ± 0.013 mPa·s
298.15 K, 101.33 kPa, x2 = 0.216	0.657 ± 0.004 mPa·s
298.15 K, 101.33 kPa, x2 = 0.409	0.824 ± 0.005 mPa·s
298.15 K, 101.33 kPa, x2 = 0.604	1.119 ± 0.007 mPa·s
298.15 K, 101.33 kPa, x2 = 0.808	1.71 ± 0.011 mPa·s
303 K, 101.3 kPa, x1 = 0.1035	1.9 ± 0.059 mPa·s
303 K, 101.3 kPa, x1 = 0.2024	1.601 ± 0.053 mPa·s
303 K, 101.3 kPa, x1 = 0.3037	1.344 ± 0.048 mPa·s
303 K, 101.3 kPa, x1 = 0.4	1.145 ± 0.045 mPa·s
303 K, 101.3 kPa, x1 = 0.5047	0.9759 ± 0.042 mPa·s
303 K, 101.3 kPa, x1 = 0.5931	0.8562 ± 0.041 mPa·s
303 K, 101.3 kPa, x1 = 0.7016	0.7412 ± 0.039 mPa·s
303 K, 101.3 kPa, x1 = 0.766	0.6921 ± 0.038 mPa·s
303 K, 101.3 kPa, x1 = 0.8859	0.611 ± 0.037 mPa·s
303.15 K, 101 kPa, x1 = 0.082	1.918 ± 0.019 mPa·s
303.15 K, 101 kPa, x1 = 0.151	1.668 ± 0.017 mPa·s
303.15 K, 101 kPa, x1 = 0.254	1.354 ± 0.014 mPa·s
303.15 K, 101 kPa, x1 = 0.345	1.145 ± 0.012 mPa·s
303.15 K, 101 kPa, x1 = 0.52	0.838 ± 0.009 mPa·s
303.15 K, 101 kPa, x1 = 0.678	0.694 ± 0.007 mPa·s
303.15 K, 101 kPa, x1 = 0.841	0.587 ± 0.006 mPa·s
303.15 K, 101 kPa, x1 = 0.915	0.564 ± 0.006 mPa·s
303.15 K, 101.33 kPa, x2 = 0.2	0.604 ± 0.016 mPa·s
303.15 K, 101.33 kPa, x2 = 0.4	0.746 ± 0.02 mPa·s
303.15 K, 101.33 kPa, x2 = 0.5	0.864 ± 0.024 mPa·s
303.15 K, 101.33 kPa, x2 = 0.6	1.021 ± 0.028 mPa·s
303.15 K, 101.33 kPa, x2 = 0.8	1.49 ± 0.041 mPa·s
308.15 K, 101 kPa, x1 = 0.082	1.702 ± 0.017 mPa·s
308.15 K, 101 kPa, x1 = 0.151	1.49 ± 0.015 mPa·s
308.15 K, 101 kPa, x1 = 0.254	1.209 ± 0.012 mPa·s
308.15 K, 101 kPa, x1 = 0.345	1.032 ± 0.011 mPa·s
308.15 K, 101 kPa, x1 = 0.52	0.764 ± 0.008 mPa·s
308.15 K, 101 kPa, x1 = 0.678	0.64 ± 0.007 mPa·s
308.15 K, 101 kPa, x1 = 0.841	0.549 ± 0.006 mPa·s
308.15 K, 101 kPa, x1 = 0.915	0.529 ± 0.006 mPa·s
308.15 K, 101.33 kPa, x2 = 0.2	0.562 ± 0.011 mPa·s and 0.562 ± 0.015 mPa·s
308.15 K, 101.33 kPa, x2 = 0.216	0.564 ± 0.003 mPa·s
308.15 K, 101.33 kPa, x2 = 0.4	0.687 ± 0.019 mPa·s
308.15 K, 101.33 kPa, x2 = 0.409	0.691 ± 0.004 mPa·s
308.15 K, 101.33 kPa, x2 = 0.5	0.791 ± 0.016 mPa·s and 0.791 ± 0.021 mPa·s
308.15 K, 101.33 kPa, x2 = 0.6	0.924 ± 0.025 mPa·s
308.15 K, 101.33 kPa, x2 = 0.604	0.911 ± 0.005 mPa·s
308.15 K, 101.33 kPa, x2 = 0.8	1.335 ± 0.036 mPa·s
308.15 K, 101.33 kPa, x2 = 0.808	1.353 ± 0.008 mPa·s
313.15 K, 101 kPa, x1 = 0.082	1.51 ± 0.015 mPa·s
313.15 K, 101 kPa, x1 = 0.151	1.336 ± 0.014 mPa·s
313.15 K, 101 kPa, x1 = 0.254	1.086 ± 0.011 mPa·s
313.15 K, 101 kPa, x1 = 0.345	0.934 ± 0.01 mPa·s
313.15 K, 101 kPa, x1 = 0.52	0.702 ± 0.007 mPa·s
313.15 K, 101 kPa, x1 = 0.678	0.593 ± 0.006 mPa·s
313.15 K, 101 kPa, x1 = 0.841	0.513 ± 0.005 mPa·s
313.15 K, 101 kPa, x1 = 0.915	0.494 ± 0.005 mPa·s
318.15 K, 101 kPa, x1 = 0.082	1.351 ± 0.014 mPa·s
318.15 K, 101 kPa, x1 = 0.151	1.195 ± 0.012 mPa·s
318.15 K, 101 kPa, x1 = 0.254	0.979 ± 0.01 mPa·s
318.15 K, 101 kPa, x1 = 0.345	0.847 ± 0.009 mPa·s
318.15 K, 101 kPa, x1 = 0.52	0.645 ± 0.006 mPa·s
318.15 K, 101 kPa, x1 = 0.678	0.553 ± 0.006 mPa·s
318.15 K, 101 kPa, x1 = 0.841	0.48 ± 0.005 mPa·s
318.15 K, 101 kPa, x1 = 0.915	0.465 ± 0.005 mPa·s
